In the NIST ThermoML archive (doi:10.1021/acs.jced.5b00662):
Values joined by “and” are separate entries in the source; they are usually repeats but may differ in a detail not shown here. Equal values may be shown once. ± gives the expanded uncertainty stated by the source.

Tests used:
[1] = 101.33 kPa, Liquid; for speed of sound: Sing-around technique in a fixed-path interferometer; for mass density: Vibrating tube method; for viscosity: Concentric cylinders viscometry
[2] = refractive index (Na D-line) (dimensionless); settings: 101.33 kPa, Liquid, Standard Abbe refractometry

COCCOCCOCCOC [2,5,8,11-tetraoxadodecane]
Settings	mass density, [1]	refractive index, [2]	speed of sound, [1] [m/s]	viscosity, [1] [mPa·s]
283.15 K	994.1 ± 2 kg/m3	1.42712 ± 0.00061	1401.4 ± 1.6	–
288.15 K	990.8 ± 2 kg/m3 and 989.4 ± 2 kg/m3	1.42498 ± 0.00061	1381.4 ± 1.6	2.414 ± 0.098
293.15 K	986 ± 2 kg/m3 and 984.6 ± 2 kg/m3	1.42284 ± 0.00061	1361.6 ± 1.5	2.162 ± 0.088
298.15 K	979.9 ± 2 kg/m3 and 981.5 ± 2 kg/m3	1.42071 ± 0.00061	1342.1 ± 1.5	1.956 ± 0.079
303.15 K	975.1 ± 2 kg/m3 and 976.7 ± 2 kg/m3	1.41862 ± 0.00061	1322.8 ± 1.5	1.777 ± 0.072
308.15 K	970.4 ± 2 kg/m3 and 971.9 ± 2 kg/m3	–	1303.6 ± 1.5	1.623 ± 0.066
313.15 K	965.6 ± 2 kg/m3 and 967.2 ± 2 kg/m3	1.41434 ± 0.00061	1284.4 ± 1.5	1.439 ± 0.059
318.15 K	962.4 ± 2 kg/m3	–	–	1.373 ± 0.056
323.15 K	956.1 ± 2 kg/m3 and 957.7 ± 2 kg/m3	1.41005 ± 0.00061	1246.9 ± 1.5	1.27 ± 0.052
328.15 K	952.9 ± 2 kg/m3	–	–	1.179 ± 0.048
333.15 K	946.5 ± 2 kg/m3 and 948.1 ± 2 kg/m3	1.40579 ± 0.00061	1209.9 ± 1.5	1.064 ± 0.043
338.15 K	943.3 ± 2 kg/m3	–	–	1.026 ± 0.042
343.15 K	938.6 ± 2 kg/m3 and 936.9 ± 2 kg/m3	1.40153 ± 0.00061	1174 ± 1.5	0.962 ± 0.039
348.15 K	933.8 ± 2 kg/m3	–	–	0.903 ± 0.037
353.15 K	929 ± 2 kg/m3	1.39723 ± 0.00061	–	0.814 ± 0.033
358.15 K	924.2 ± 2 kg/m3	–	–	0.801 ± 0.033
363.15 K	919.4 ± 2 kg/m3	–	–	0.756 ± 0.031
368.15 K	914.5 ± 2 kg/m3	–	–	0.715 ± 0.029
373.15 K	909.7 ± 2 kg/m3	–	–	0.65 ± 0.027
